Experimental findings from patent US10689383B2, “Optionally fused heterocyclyl-substituted derivatives of pyrimidine useful for the treatment of inflammatory, metabolic, oncologic and autoimmune diseases” (NUEVOLUTION A/S, priority 2014, dated 2020) are described below.

Each structure is given as a SMILES string.

Experiment [1] concerns the target T1, yeast Gal4-DNA binding domain fused to the ligand binding domain of human RORγ (Homo sapiens, UniProt P51449).
T1 construct: host or cells: HEK293t
T1 sequence (P51449 269-508 limits assumed): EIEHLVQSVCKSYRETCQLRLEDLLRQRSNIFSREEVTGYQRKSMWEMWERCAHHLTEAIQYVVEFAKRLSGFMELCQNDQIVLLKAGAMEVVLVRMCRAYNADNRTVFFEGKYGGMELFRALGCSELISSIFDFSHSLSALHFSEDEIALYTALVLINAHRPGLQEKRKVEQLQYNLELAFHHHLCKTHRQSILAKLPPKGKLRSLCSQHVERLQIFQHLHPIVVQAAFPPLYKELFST
The experiment is described as follows: RORγ Reporter Assay (Gal4). The experiment is classed as cell-based. Particulars: values given as lower bounds of ranges; for Gal4 activity range @ 1 μM (% inhibition): RORγ Reporter Assay (Gal4) at 1 μM; for Gal4 activity range @ 0.1 μM (% inhibition): RORγ Reporter Assay (Gal4) at 0.1 μM. In a few lines: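 Compound at final 1,000 or 100 nM (0.1% DMSO, triplicate) was added to the transfected HEK293t cells carrying a Gal4-UAS luciferase reporter for 24 h at 37 °C, 10% charcoal-stripped FBS. Activity reduction expressed as percent of vehicle-only luciferase signal.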

The target in experiment [2] is T2, human RORγt (Ligand Binding Domain) (Homo sapiens, UniProt P51449).
T2 construct: purchased Crelux (Planegg, Germany) batch no PC5032-1
T2 sequence (P51449 269-508 limits assumed): T1 sequence (P51449 269-508 limits assumed)
The experiment is described as follows: Fluorescence Polarization (FP) Assay. The following applies: Fluorescence Polarization (FP) Assay; values given as upper bounds of activity ranges; read-out: FP activity range. In a few lines: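 Binding to the ligand pocket followed by fluorescence polarization with a TAMRA-tagged RORγt ligand probe of 910 g/mole. Negative control wells received DMSO only.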
In general terms: Polarisation of emitted light reports the rotation of a fluorescent probe.

On to `CC(C)(C)C[C@@H](Nc1ncnc(N2CCCC2c2ccc(OC(C)(C)C)cc2)c1F)C(N)=O` (stereo partly drawn) [Example 43, (2R)-2-[[6-[2-(4-tert-butoxyphenyl)pyrrolidin-1-yl]-5-fluoro-pyrimidin-4-yl]amino]-4,4-dimethyl-pentanamide], for which the “Gal4 activity range @ 1 μM (% inhibition)” value in experiment [1] is listed as greater than 80 % inhibition. In addition, in experiment [2], the IC50 was less than 1000 nM.

Turning to `CS(=O)(=O)N1CCC(CNc2ncnc(N3CCOC[C@@H]3c3ccc(C(F)(F)F)cc3)c2F)C1` (stereo partly drawn) [Example 327, 5-fluoro-N-[(1-methylsulfonylpyrrolidin-3-yl)methyl]-6-[(3S)-3-[4-(trifluoromethyl)phenyl]morpholin-4-yl]pyrimidin-4-amine], in experiment [1], the “Gal4 activity range @ 0.1 μM (% inhibition)” value was greater than 20 % inhibition and the “Gal4 activity range @ 1 μM (% inhibition)” value was greater than 80 % inhibition. Besides, the IC50 in experiment [2] was less than 1000 nM.

On to `Cc1c(N[C@H](CC(C)(C)C)C(N)=O)ncnc1N1CCCC1c1ccc(C(F)(F)F)cc1` (stereo partly drawn) [Example 14, (2R)-4,4-dimethyl-2-[[5-methyl-6-[2-[4-(trifluoromethyl)phenyl]pyrrolidin-1-yl]pyrimidin-4-yl]amino]pentanamide], for which the “Gal4 activity range @ 1 μM (% inhibition)” value in experiment [1] is greater than 0 % inhibition. In addition, the IC50 in experiment [2] is less than 10000 nM.

As for `CC(C)(C)C[C@@H](Nc1ncnc(N2CCCC2c2ccc(C(F)(F)F)cn2)c1F)C(N)=O` (stereo partly drawn) [Example 42, (2R)-2-[[5-fluoro-6-[2-[5-(trifluoromethyl)-2-pyridyl]pyrrolidin-1-yl]pyrimidin-4-yl]amino]-4,4-dimethyl-pentanamide], the “Gal4 activity range @ 1 μM (% inhibition)” value in experiment [1] is given as greater than 20 % inhibition. Moreover, the IC50 in experiment [2] is less than 2000 nM.

As for `NC(=O)C1(CNc2ncnc(N3CCOC[C@@H]3c3ccc(C(F)(F)F)cc3)c2F)CCOCC1` [Example 255, 4-[[[5-fluoro-6-[(3S)-3-[4-(trifluoromethyl)phenyl]morpholin-4-yl]pyrimidin-4-yl]amino]methyl]tetrahydropyran-4-carboxamide], in experiment [1], the “Gal4 activity range @ 0.1 μM (% inhibition)” value is on record as greater than 20 % inhibition and the “Gal4 activity range @ 1 μM (% inhibition)” value is greater than 50 % inhibition. The IC50 in experiment [2] was less than 2000 nM.

For the compound `N#CNC(=O)Cc1ccc(CNc2ncnc(N3CCOCC3c3ccc(C(F)(F)F)cc3)c2F)cc1` (centres unmarked) [Example 292, N-cyano-2-[4-[[[5-fluoro-6-[3-[4-(trifluoromethyl)phenyl]morpholin-4-yl]pyrimidin-4-yl]amino]methyl]phenyl]acetamide], in experiment [1], the “Gal4 activity range @ 0.1 μM (% inhibition)” value was greater than 0 % inhibition and the “Gal4 activity range @ 1 μM (% inhibition)” value is greater than 20 % inhibition. The IC50 in experiment [2] was less than 500 nM.

In the case of `NC(=O)[C@@H](CC1CCNC1=O)Nc1ncnc(N2CCCC2c2ccc(C(F)(F)F)cc2)c1F` (stereo partly drawn) [Example 63, (2R)-2-[[5-fluoro-6-[2-[4-(trifluoromethyl)phenyl]pyrrolidin-1-yl]pyrimidin-4-yl]amino]-3-(2-oxopyrrolidin-3-yl)propanamide], the “Gal4 activity range @ 1 μM (% inhibition)” value in experiment [1] is recorded as greater than 20 % inhibition. For the same compound, the IC50 in experiment [2] was less than 2000 nM.

In the case of `CC1CC(c2ccc(C(F)(F)F)cc2)N(c2ncnc(NCc3ccc(CC(N)=O)cc3)c2F)C1` (centres unmarked) [Example 248, 2-[4-[[[5-fluoro-6-[4-methyl-2-[4-(trifluoromethyl)phenyl]pyrrolidin-1-yl]pyrimidin-4-yl]amino]methyl]phenyl]acetamide], in experiment [1], the “Gal4 activity range @ 0.1 μM (% inhibition)” value is on record as greater than 20 % inhibition and the “Gal4 activity range @ 1 μM (% inhibition)” value was greater than 80 % inhibition. Further, in experiment [2], the IC50 is less than 1000 nM.

As to `Fc1c(NCC2CCCOC2)ncnc1N1CCC[C@@H]1c1ccc(C(F)(F)F)cc1` (stereo partly drawn) [Example 186, 5-fluoro-N-(tetrahydropyran-3-ylmethyl)-6-[(2R)-2-[4-(trifluoromethyl)phenyl]pyrrolidin-1-yl]pyrimidin-4-amine], in experiment [1], the “Gal4 activity range @ 0.1 μM (% inhibition)” value is on record as greater than 0 % inhibition. For the same compound, the IC50 in experiment [2] was less than 500 nM.

As for `CC(C)c1ccc(C2CCCN2c2ncnc(NCc3ccc(CC(N)=O)cc3)c2F)cc1` (centres unmarked) [Example 303, 2-[4-[[[5-fluoro-6-[2-(4-isopropylphenyl)pyrrolidin-1-yl]pyrimidin-4-yl]amino]methyl]phenyl]acetamide], in experiment [1], the “Gal4 activity range @ 0.1 μM (% inhibition)” value is on record as greater than 80 % inhibition and the “Gal4 activity range @ 1 μM (% inhibition)” value is greater than 80 % inhibition. Moreover, the IC50 in experiment [2] was less than 500 nM.

`OCC1CCC(CNc2ncnc(N3CCC[C@@H]3c3ccc(C(F)(F)F)cc3)c2F)CC1` (stereo partly drawn) [Example 225, [4-[[[5-fluoro-6-[(2R)-2-[4-(trifluoromethyl)phenyl]pyrrolidin-1-yl]pyrimidin-4-yl]amino]methyl]cyclohexyl] methanol]: in experiment [1], the “Gal4 activity range @ 0.1 μM (% inhibition)” value is listed as greater than 80 % inhibition and the “Gal4 activity range @ 1 μM (% inhibition)” value is reported as greater than 80 % inhibition. Besides, the IC50 in experiment [2] was less than 500 nM.

With `CS(=O)(=O)CC1(CNc2ncnc(N3CCOC[C@@H]3c3ccc(C(F)(F)F)cc3)c2F)CCOCC1` [Example 253, 5-fluoro-N-[[4-(methylsulfonylmethyl)tetrahydropyran-4-yl]methyl]-6-[(3S)-3-[4-(trifluoromethyl)phenyl]morpholin-4-yl]pyrimidin-4-amine], in experiment [1], the “Gal4 activity range @ 0.1 μM (% inhibition)” value was greater than 50 % inhibition and the “Gal4 activity range @ 1 μM (% inhibition)” value is listed as greater than 80 % inhibition. In experiment [2], the IC50 was less than 1000 nM.

Consider `O=C(O)CC1CCC(CNc2ncnc(N3CCCC3c3ccc(C(F)(F)F)cc3)c2F)CC1` (centres unmarked) [Example 148, 2-[4-[[[5-fluoro-6-[2-[4-(trifluoromethyl)phenyl]pyrrolidin-1-yl]pyrimidin-4-yl]amino]methyl]cyclohexyl]acetic acid], for which the “Gal4 activity range @ 0.1 μM (% inhibition)” value in experiment [1] was greater than 50 % inhibition. Besides, the IC50 in experiment [2] was less than 1000 nM.

Regarding `O=S(=O)(CC(F)(F)F)N[C@H]1CC[C@H](CNc2ncnc(N3CCOC[C@@H]3c3ccc(OC(F)(F)F)cc3)c2F)CC1` [Example 285, 2,2,2-trifluoro-N-[4-[[[5-fluoro-6-[(3S)-3-[4-(trifluoromethoxy)phenyl]morpholin-4-yl]pyrimidin-4-yl]amino]methyl]cyclohexyl]ethane sulfonamide], in experiment [1], the “Gal4 activity range @ 0.1 μM (% inhibition)” value was greater than 0 % inhibition and the “Gal4 activity range @ 1 μM (% inhibition)” value was greater than 20 % inhibition. The IC50 in experiment [2] was less than 500 nM.

For `NC(=O)Cc1ccc(CNc2ncnc(N3CCCCC3c3ccc(C(F)(F)F)cc3)c2F)cc1` (centres unmarked) [Example 308, 2-[4-[[[5-fluoro-6-[2-[4-(trifluoromethyl)phenyl]-1-piperidyl]pyrimidin-4-yl]amino]methyl]phenyl]acetamide], in experiment [1], the “Gal4 activity range @ 0.1 μM (% inhibition)” value is greater than 20 % inhibition and the “Gal4 activity range @ 1 μM (% inhibition)” value is reported as greater than 50 % inhibition. Also, the IC50 in experiment [2] is less than 10000 nM.

Turning to `COCC1(CNc2ncnc(N3CCC[C@@H]3c3ccc(C(F)(F)F)cc3)c2F)CCC1` [Example 188, 5-fluoro-N-[[1-(methoxymethyl)cyclobutyl]methyl]-6-[(2R)-2-[4-(trifluoromethyl)phenyl]pyrrolidin-1-yl]pyrimidin-4-amine], the “Gal4 activity range @ 0.1 μM (% inhibition)” value in experiment [1] is listed as greater than 0 % inhibition. Moreover, the IC50 in experiment [2] is less than 500 nM.

As to `COc1ccc(CNc2ncnc(N3CCCC3c3ccc(C(F)(F)F)cc3)c2F)cn1` (centres unmarked) [Example 114, 5-fluoro-N-[(6-methoxy-3-pyridyl)methyl]-6-[2-[4-(trifluoromethyl)phenyl]pyrrolidin-1-yl]pyrimidin-4-amine], in experiment [1], the “Gal4 activity range @ 0.1 μM (% inhibition)” value is reported as greater than 20 % inhibition and the “Gal4 activity range @ 1 μM (% inhibition)” value was greater than 80 % inhibition. In addition, in experiment [2], the IC50 is less than 1000 nM.

Take `Cc1ccc(CNc2ncnc(N3CCC[C@@H]3c3ccc(C(F)(F)F)cc3F)c2F)cn1` [Example 210, 5-fluoro-6-[(2R)-2-[2-fluoro-4-(trifluoromethyl)phenyl]pyrrolidin-1-yl]-N-[(6-methyl-3-pyridyl)methyl]pyrimidin-4-amine]: in experiment [1], the “Gal4 activity range @ 0.1 μM (% inhibition)” value is greater than 50 % inhibition and the “Gal4 activity range @ 1 μM (% inhibition)” value is recorded as greater than 80 % inhibition. Besides, in experiment [2], the IC50 was less than 1000 nM.

As for `NC(=O)Cc1ccc(CNc2ncnc(N3CCOCC3c3ccccc3)c2F)s1` (centres unmarked) [Example 283, 2-[5-[[[5-fluoro-6-(3-phenylmorpholin-4-yl)pyrimidin-4-yl]amino]methyl]-2-thienyl]acetamide], in experiment [1], the “Gal4 activity range @ 0.1 μM (% inhibition)” value is reported as greater than 0 % inhibition and the “Gal4 activity range @ 1 μM (% inhibition)” value is on record as greater than 20 % inhibition. For the same compound, in experiment [2], the IC50 was less than 1000 nM.

For `Fc1c(NC[C@H]2CC[C@H](Cc3nnn[nH]3)CC2)ncnc1N1CCOC[C@@H]1c1ccc(C(F)(F)F)cc1` [Example 288, 5-fluoro-N-[[4-(1H-tetrazol-5-ylmethyl)cyclohexyl]methyl]-6-[(3S)-3-[4-(trifluoromethyl)phenyl]morpholin-4-yl]pyrimidin-4-amine], in experiment [1], the “Gal4 activity range @ 0.1 μM (% inhibition)” value is reported as greater than 80 % inhibition and the “Gal4 activity range @ 1 μM (% inhibition)” value is given as greater than 80 % inhibition. Moreover, in experiment [2], the IC50 is less than 500 nM.
